Results: article PMC6073479, “Cecropin A Modulates Tight Junction-Related Protein Expression and Enhances the Barrier Function of Porcine Intestinal Epithelial Cells by Suppressing the MEK/ERK Pathway” (International Journal of Molecular Sciences, 2018)
No end group written: not given here.

Legend:
[1] = tested on: E. coli adherence to IPEC-J2 cells; assay: Quantifying adherent bacteria (CFU); type: cell-based, Escherichia coli; settings: n = 3
Protocol: To calculate the number of adherent E. coli, E. coli were cocultured with IPEC-J2 cells in DMEM/high-glucose medium (no penicillin/streptomycin, no FBS). Then, the cells were washed with PBS six times and lysed with 1% Triton X-100 for 20 min at room temperature. Next, 5 μL lysates were plated on MacConkey agar plates overnight. The total number of bacteria was quantified as CFUs.

[2] = tested on: ZO-1, claudin-1 and occludin membrane distribution; assay: Cell immunofluorescence of tight junction proteins; type: cell-based, porcine; settings: IPEC-J2 cells, 400×, n = 3
Protocol: (§1) To test the expression and location of tight junction proteins (ZO-1, occludin and claudin-1) and the cytoskeleton (F-actin), cell immunofluorescence was used. The IPEC-J2 cells were cultured and became confluent on the slide. After treatment, the cells were washed with PBS three times, fixed with 4% polyoxymethylene for 30 min, and then washed by PBS again three times. For F-actin staining, 0.5% Triton X-100 was added for 20 min. After that, 0.5% bovine serum albumin was added for 1 h, and then the primary antibodies were added and incubated with the cells at 4 °C overnight. The slides were then washed with PBST three times, and the FITC-labeled secondary antibody was added for 2 h. At last, the cell nuclei were stained by using DAPI (Santa Cruz Biotechnology, Dallas, TX, USA). The slides were then observed by using a fluorescence microscope. Primary antibodies including occludin (Abcam, Cambridge, UK), claudin-1 (CST, Danvers, MA, USA) and ZO-1 (Thermo Fisher Scientific, Waltham, MA, USA) were used. For staining F-actin, FITC-phalloidin (Sigma-Aldrich, St. Louis, MI, USA) was used.

[3] = tested on: ZO-1 protein expression; assay: Western blotting of ZO-1; type: cell-based, porcine; settings: IPEC-J2 cells, versus control group, n = 3
Protocol: (§2) The total protein was extracted with lysis buffer. The concentration of protein was tested by using a BCA protein assay kit (Thermo Scientific, Waltham, MA, USA) and mixed with 5× loading buffer. 20 μg protein sample was loaded in each well. The supernatant was then separated by 10% SDS-PAGE and transferred onto a PVDF membrane (Millipore, Burlington, MA, USA). After blocking with 5% skimmed milk powder, the membrane was incubated with the appropriate primary antibodies overnight at 4 °C, followed by incubation with a horseradish peroxidase (HRP)-conjugated secondary antibody for 2 h. Bands were detected using an ECL Western Blotting Substrate (Thermo Scientific, Waltham, MA, USA). Band intensity was quantified using ImageJ software. The primary antibodies including β-actin, p-MEk, MEK, p-ERK, ERK, CDX2 were purchased from Cell Signaling Technology (CST, Danvers, MA, USA).

[4] = tested on: F-actin polymerization; assay: Cell immunofluorescence of F-actin (FITC-phalloidin); type: cell-based, porcine; settings: IPEC-J2 cells; FITC-phalloidin staining, 400×; n = 3
Protocol: as §1

[5] = tested on: TNF-α mRNA expression; assay: qPCR of TNF-α mRNA in IPEC-J2 cells cocultured with E. coli; type: cell-based, porcine; settings: IPEC-J2 cells after coculture with E. coli, treatment for 48 h, compared to non-treated cells, n = 6
Protocol: (§3) Total RNA was extracted using TRIzol reagent according to the manufacturer’s instructions. Concentration and purity of RNA was checked by using a NanoDrop 2000. cDNA was generated from 1 μg total RNA using a First Strand cDNA Synthesis Kit (Thermo Scientific, Waltham, MA, USA). Quantitative PCR (qPCR) was performed to quantify mRNA expression levels of IL-6, IL-8 and TNF-α relative to that of a housekeeping gene, glyceraldehyde-3-phosphate dehydrogenase (GAPDH) by using SYBR Green mix (ABI) according to the manufacturer’s instructions.

[6] = tested on: IPEC-J2 cell monolayer; assay: FITC-dextran paracellular permeability assay; type: cell-based, porcine; settings: 12.5 μg/mL; 48 h and 72 h; FITC-dextran 5 mg/mL apical, 2 h; fluorescence 480/520 nm; p < 0.05; n = 6
Protocol: To evaluate the permeability of the monolayer intestinal cells, FITC-dextran was used. FITC-dextran (Sigma-Aldrich, St. Louis, MO, USA) was dissolved in PBS at 5 mg/mL. After the medium was discarded, 200 μL FITC-dextran was added to the apical compartment, and 500 μL PBS was added to the basal compartment and cultured for 2 h. Then, 100 μL liquid from each well was transferred to 96-well plates, and the […] was read at 480 nm excitation and 520 nm emission wavelengths. Then, the content of the FITC-dextran in the basal compartment was calculated using a standard curve.

[7] = tested on: IPEC-J2 cell monolayer; assay: Transepithelial electrical resistance (TER) measurement; type: cell-based, porcine
Protocol: To evaluate the barrier integrity of IPEC-J2 cells, the transepithelial resistance (TER) and was measured, and a permeability assay was performed. The initial TER was tested before the cells were seeded. IPEC-J2 cells were then seeded in a Transwell membrane insert ([…], 0.4 μm pore size, Corning) at a density of 7 × 10^5 cells/well. Then, 200 μL and 500 μL medium was added to the apical and basal compartments, respectively. Cecropin A (12.5 μg/mL) was added to the apical and basal compartments. The TER values were measured every day by using an ohm-meter fitted with chopstick electrodes (Millipore ESR-2; Burlington, MA, USA). Before each test, the plates were placed at room temperature for 30 min. The TER was calculated by using the following equation:TER (Ω·cm^2) = (TER − TERinitial) × 0.3

[8] = tested on: IL-8 mRNA expression; assay: qPCR of IL-8 mRNA in IPEC-J2 cells cocultured with E. coli; type: cell-based, porcine; settings: IPEC-J2 cells after coculture with E. coli, treatment for 48 h, compared to non-treated cells, n = 6
Protocol: as §3

[9] = tested on: IPEC-J2 cells; settings: MTT; 1.5–12.5 μg/mL, 8 h; compared to control group
Protocol: IPEC-J2 cells were cultured at 37 °C in 100% humidity and 5% CO2 conditions with DMEM/F12 (Thermo, Waltham, MA, USA) supplemented with 5% fetal bovine serum (Gibco, Waltham, MA, USA) and 1% penicillin/streptomycin.
Thiazolyl blue tetrazolium bromide (MTT) was purchased from Sigma-Aldrich (St. Louis, MI, USA). The MTT was dissolved in PBS (5 mg/mL). The cytotoxicity of AMPs to IPEC-J2 cells was tested by using an MTT assay. A density of 1 × 10^5 cells in 180 μL medium per well was seeded in 96-well plates (Corning, New York, NY, USA), and then 20 μL AMPs was added. The final concentrations were 200, 100, 50, 25, 12.5, 6.25, 3.125, were 1.56 μg/mL. After 8 h culture, 20 μL MTT was added, and then the cells were continued to culture for 4 h. The supernatant was discarded, and 150 μL DMSO was added. After 30 min shaking at room temperature, the absorbance was measured at a wavelength of 490 nm. The cell viability was calculated by using the following equation:Cell viability = (ODControl − ODAMP)/ODControl × 100%

[10] = tested on: ERK phosphorylation; assay: Western blotting of p-ERK(1/2)/ERK(1/2); type: cell-based, porcine; settings: IPEC-J2 cells, versus control group, p < 0.01, n = 3
Protocol: as §2

[11] = tested on: CDX2 protein level; assay: Western blotting of CDX2; type: cell-based, porcine; settings: IPEC-J2 cells, compared with control group, p < 0.001, n = 3
Protocol: as §2

[12] = tested on: MEK phosphorylation; assay: Western blotting of p-MEK/MEK; type: cell-based, porcine; settings: IPEC-J2 cells, versus control group, p < 0.01, n = 3
Protocol: as §2

[13] = tested on: occludin protein expression; assay: Western blotting of occludin; type: cell-based, porcine; settings: IPEC-J2 cells, versus control group, n = 3
Protocol: as §2

[14] = tested on: IL-6 mRNA expression; assay: qPCR of IL-6 mRNA in IPEC-J2 cells cocultured with E. coli; type: cell-based, porcine; settings: IPEC-J2 cells after coculture with E. coli, treatment for 48 h, compared to non-treated cells, n = 6
Protocol: as §3

[15] = tested on: gram-negative bacterial strains, such as E. coli, Salmonella and Pseudomonas aeruginosa; assay: MIC/MBC test; type: cell-based; settings: gram-negative strains versus Staphylococcus aureus
Protocol: The Escherichia coli ATCC 35401, ATCC 35150, ATCC 25922, and SSI 82000, Pseudomonas aeruginosa ATCC 9027 and ATCC 27853, Salmonella ATCC13312 and ATCC9120, Salmonella typhimurium ATCC 14028, and Staphylococcus aureus ATCC 29213 strains were purchased from Guangdong Culture Collection Center. The Escherichia coli W25K strain was isolated from a piglet with diarrhea as described previously. The strains were cultured in LB medium to logarithmic growth period (OD = 0.5) and then were transferred to Mueller-Hinton Broth (MHB) medium for the minimum inhibitory concentration (MIC) or minimum bactericidal concentration (MBC) test.
The MIC test was assessed according to the process of the Clinical and Laboratory Standards Institute. The bacterial strains were diluted with MHB medium, and the concentration was 5 × 10^5 CFU/mL. Then, 180 μL bacterial suspension was transferred to 96-well cell plates. […] Then, the bacteria were cultured at 37 °C for 8 h.

[16] = tested on: claudin-1 protein expression; assay: Western blotting of claudin-1; type: cell-based, porcine; settings: IPEC-J2 cells, versus control group, n = 3
Protocol: as §2

| Compound | adherence of E. coli ([1]; IPEC-J2 cells, inhibitor 10 μM for 48 h, compared to cecropin A group) | membrane distribution of ZO-1, claudin-1 and occludin (TJs) [2] | ZO-1 protein level [3] | F-actin polymerization / distribution [4] | TNF-α mRNA expression [5] | permeability of the IPEC-J2 cell monolayer (4 kDa FITC-dextran in basal compartment) [6] | TER values ([7]; IPEC-J2 monolayer on Transwell, 12.5 μg/mL apical and basal, at 48 h and 72 h, compared to control cells, p < 0.01, n = 6) | TER values ([7]; inhibitor experiment (Figure 5), 24 and 48 h, compared with control group, n = 3) | IL-8 mRNA expression [8] | IPEC-J2 cell viability [9] | ERK phosphorylation [10] | CDX2 protein level [11] | MEK phosphorylation [12] | E. coli adherence (CFU of adherent bacteria) ([1]; IPEC-J2 cells pretreated with 3.125, 6.25 and 12.5 μg/mL for 48 h) | occludin protein level [13] | IL-6 mRNA expression [14] | antibacterial activity against E. coli, Salmonella typhimurium and Pseudomonas aeruginosa compared with Staphylococcus aureus [15] | claudin-1 protein level [16] |
| --- | --- | --- | --- | --- | --- | --- | --- | --- | --- | --- | --- | --- | --- | --- | --- | --- | --- | --- |
| O=C(NOCC1CC1)c1ccc(F)c(F)c1Nc1ccc(I)cc1Cl [PD184352] | reduced |  |  |  |  |  |  |  |  |  |  |  |  |  |  |  |  |  |
| KWKLFKKIEKVGQNIRDGIIKAGPAVAVVGQATQIAK-NH2 (C-terminus assumed) [cecropin A] |  | much more polymerized at the cell–cell boundary | significantly upregulated | much more polymerized at the cell–cell boundary | downregulated | reduces the permeability | significantly increased | significantly higher | downregulated | not reduced | downregulates | upregulated | downregulates | reduced E. coli adherence in a dose-dependent manner | significantly upregulated | downregulated | much higher | significantly upregulated |
